In patent US20230174538A1, “Tricyclic heterocycles” (Merck Patent GmbH, priority 2020, published 2023):

tested on: YAP-TEAD interaction; test: SK-HEP-1 reporter assay (8xTEAD responsive elements driving NanoLuc luciferase); assay type: cell-based; settings: Homo sapiens, SK-HEP1, SK-HEP-1 reporter assay
Procedure, shortened: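 Luminescence after NanoGlo addition gave reporter activity, and IC50 values came from duplicate 10-point curves (top final concentration 30 μM, 0.3% DMSO). The cells were SK-HEP-1 with a stably integrated 8×TEAD-driven NanoLuc gene, exposed to compound for 24 h at 37 °C.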

| IC50 [nM] | Compound |
| --- | --- |
| 100 to 10000 | COCC1(C)CCCN1C(=O)c1ccc2c(c1)c1cn(C)nc1n2-c1ccc(C(F)(F)F)cc1 (stereo not drawn) [Example B89, 2-(methoxymethyl)-2-methyl-1-{2-methyl-8-[4-(trifluoromethyl)phenyl]-2H,8H-pyrazolo[3,4-b]indole-5-carbonyl}pyrrolidine] |
| 10 to 100 | CC(CCn1cncn1)NC(=O)c1ccc2c(c1)c1cn(C)nc1n2-c1ccc(C(F)(F)F)cc1 (stereo not drawn) [Example B90, 2-methyl-N-[4-(1H-1,2,4-triazol-1-yl)butan-2-yl]-8-[4-(trifluoromethyl)phenyl]-2H,8H-pyrazolo[3,4-b]indole-5-carboxamide] |
| 10 to 100 | Cn1cc2c3cc(C(=O)NC(CF)c4cnnn4C)ccc3n(-c3ccc(C(F)(F)F)cc3)c2n1 (stereo not drawn) [Example B91, N-[2-fluoro-1-(1-methyl-1H-1,2,3-triazol-5-yl)ethyl]-2-methyl-8-[4-(trifluoromethyl)phenyl]-2H,8H-pyrazolo[3,4-b]indole-5-carboxamide] |
| 100 to 10000 | CC(CNC(=O)c1ccc2c(c1)c1cn(C)nc1n2-c1ccc(C(F)(F)F)cc1)c1ccc(F)cn1 (stereo not drawn) [Example B92, N-[2-(5-fluoropyridin-2-yl)propyl]-2-methyl-8-[4-(trifluoromethyl)phenyl]-2H,8H-pyrazolo[3,4-b]indole-5-carboxamide] |
| 10 to 100 | COc1nn(C)cc1CNC(=O)c1ccc2c(c1)c1cn(C)nc1n2-c1ccc(C(F)(F)F)cc1 [Example B93, N-[(3-methoxy-1-methyl-1H-pyrazol-4-yl)methyl]-2-methyl-8-[4-(trifluoromethyl)phenyl]-2H,8H-pyrazolo[3,4-b]indole-5-carboxamide] |
| 100 to 10000 | Cn1cc2c3cc(C(=O)NCCc4cc(C5CC5)on4)ccc3n(-c3ccc(C(F)(F)F)cc3)c2n1 [Example B95, N-[2-(5-cyclopropyl-1,2-oxazol-3-yl)ethyl]-2-methyl-8-[4-(trifluoromethyl)phenyl]-2H,8H-pyrazolo[3,4-b]indole-5-carboxamide] |
| 100 to 10000 | CCn1nnc(C)c1CNC(=O)c1ccc2c(c1)c1cn(C)nc1n2-c1ccc(C(F)(F)F)cc1 [Example B96, N-[(1-ethyl-4-methyl-1H-1,2,3-triazol-5-yl)methyl]-2-methyl-8-[4-(trifluoromethyl)phenyl]-2H,8H-pyrazolo[3,4-b]indole-5-carboxamide] |
| 100 to 10000 | Cn1cc2c3cc(C(=O)NCCn4cnnc4C4CC4)ccc3n(-c3ccc(C(F)(F)F)cc3)c2n1 [Example B98, N-[2-(3-cyclopropyl-4H-1,2,4-triazol-4-yl)ethyl]-2-methyl-8-[4-(trifluoromethyl)phenyl]-2H,8H-pyrazolo[3,4-b]indole-5-carboxamide] |
| > 10000 | CCOC1CC(N(C)C(=O)c2ccc3c(c2)c2cn(C)nc2n3-c2ccc(C(F)(F)F)cc2)C1(C)C (stereo not drawn) [Example B99, N-(3-ethoxy-2,2-dimethylcyclobutyl)-N,2-dimethyl-8-[4-(trifluoromethyl)phenyl]-2H,8H-pyrazolo[3,4-b]indole-5-carboxamide] |
